Measured values: the supplement of paper PMC10307832

Legend:
Test in all cases: relative viability (nuclei count vs DMSO), 5 days (fraction); higher = more cells survive
XMD14-99 + AZD7762 = compound: CN1CCN(CC1)C2=CC(=C(C=C2)NC3=NC(=C(S3)C(=O)C4=C(C=CC=C4Cl)Cl)N)OC [XMD14-99] + NC(=O)Nc1cc(-c2cccc(F)c2)sc1C(=O)N[C@H]1CCCNC1 [AZD7762] (partner 0.2 µM)
How it was run: (§1)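 A single step with final 0.05% Triton X-100, 1% formaldehyde and 1 ug/ml Hoechst fixed the cells and stained nuclei 5 days after treatment. Lung cancer cell lines in 1536-well plates had been treated by pin tool the day after seeding with one drug alone or a fixed anchor-drug dose plus five library-drug doses (not always all listed) in √10 steps, and nuclei were counted on 4× images. Relative viability is the ratio of nuclei in treated wells to nuclei in vehicle wells, taken as the median of duplicate plates.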

AZD1208 + Decitabine = compound: N[C@@H]1CCCN(c2c(/C=C3\SC(=O)NC3=O)cccc2-c2ccccc2)C1 [AZD1208] + Nc1ncn([C@H]2C[C@H](O)[C@@H](CO)O2)c(=O)n1 [Decitabine] (partner 2 µM)
How it was run: as §1

AZD1208 + Crizotinib = compound: N[C@@H]1CCCN(c2c(/C=C3\SC(=O)NC3=O)cccc2-c2ccccc2)C1 [AZD1208] + C[C@@H](Oc1cc(-c2cnn(C3CCNCC3)c2)cnc1N)c1c(Cl)ccc(F)c1Cl [Crizotinib] (partner 1 µM)
How it was run: as §1

XMD14-99 + Palbociclib = compound: CN1CCN(CC1)C2=CC(=C(C=C2)NC3=NC(=C(S3)C(=O)C4=C(C=CC=C4Cl)Cl)N)OC [XMD14-99] + CC(=O)c1c(C)c2cnc(Nc3ccc(N4CCNCC4)cn3)nc2n(C2CCCC2)c1=O [Palbociclib] (partner 0.5 µM)
How it was run: as §1

Row | Cell Line | relative viability (XMD14-99 + AZD7762; first compound 0.08 µM) | relative viability (XMD14-99 + AZD7762; first compound 0.8 µM) | relative viability (XMD14-99 + AZD7762; first compound 2.53 µM) | relative viability (XMD14-99 + AZD7762; first compound 8 µM) | relative viability (AZD1208 + Decitabine; first compound 0.08 µM) | relative viability (AZD1208 + Decitabine; first compound 0.253 µM) | relative viability (AZD1208 + Decitabine; first compound 0.8 µM) | relative viability (AZD1208 + Decitabine; first compound 2.53 µM) | relative viability (AZD1208 + Decitabine; first compound 8 µM) | relative viability (AZD1208 + Crizotinib; first compound 0.08 µM) | relative viability (AZD1208 + Crizotinib; first compound 0.253 µM) | relative viability (AZD1208 + Crizotinib; first compound 0.8 µM) | relative viability (AZD1208 + Crizotinib; first compound 2.53 µM) | relative viability (AZD1208 + Crizotinib; first compound 8 µM) | relative viability (XMD14-99 + Palbociclib; first compound 0.08 µM) | relative viability (XMD14-99 + Palbociclib; first compound 0.8 µM) | relative viability (XMD14-99 + Palbociclib; first compound 2.53 µM) | relative viability (XMD14-99 + Palbociclib; first compound 8 µM)
1 | NCI-H1437 | 1.18 | 1.05 | 0.991 | 0.719 | 0.546 | 0.594 | 0.638 | 0.581 | 0.536 | 0.979 | 0.961 | 1.03 | 0.998 | 1.04 | 0.307 | 0.311 | 0.252 | 0.221
2 | NCI-H1792 | 0.822 | 0.556 | 0.599 | 0.305 | 0.624 | 0.538 |  | 0.505 | 0.468 | 1.03 | 1.08 | 0.858 | 0.956 | 0.907 | 0.64 | 0.697 | 0.631 | 0.598
3 | ChaGo-K-1 | 0.844 | 0.901 | 0.826 | 0.825 | 0.522 | 0.509 | 0.399 | 0.481 | 0.465 | 1.1 | 1.28 | 0.99 | 1.16 | 0.9 | 0.972 | 0.93 | 0.975 | 0.873
4 | LK-2 | 0.375 | 0.41 | 0.354 | 0.235 | 0.316 | 0.291 | 0.23 | 0.274 | 0.195 | 0.28 | 0.211 | 0.212 | 0.275 | 0.252 | 0.572 | 0.804 | 0.655 | 0.611
5 | 201T | 0.529 | 0.598 | 0.583 | 0.607 | 0.886 | 0.868 | 0.855 | 0.97 | 0.893 | 1 | 1.08 | 1.06 | 1.11 | 1.14 | 0.351 | 0.368 | 0.371 | 0.333
